US20150083906A1, “BIOMARKERS FOR MONITORING INTERVENTION THERAPIES FOR DIABETES” (MERCK SHARP & DOHME CORP., priority 2012, published 2015)
“Also recorded” adds a separate entry of the source.

Legend:
db/db mice [1] = assay: Study 3: plasma N-glycan profile in insulin detemir-treated db/db mice; type: in vivo; details: for Direction of Change, High Mannose glycan 520000 (Man5GlcNAc2) / Direction of Change, High Mannose glycan 620000 (Man6GlcNAc2) / Direction of Change, High Mannose glycan 720000 (Man7GlcNAc2) / Direction of Change, High Mannose glycan 820000 (Man8GlcNAc2) / Direction of Change, Hybrid glycan 430010 / Direction of Change, Hybrid glycan 530010 / Direction of Change, Hybrid glycan 630010: subcutaneous, two doses of 10 U/kg per day, days 7, 14, 21, vs vehicle
Description: In Study 3, changes in the N-linked glycosylation profile of total serum proteins obtained from diabetic mice were further characterized using a different drug-treatment to determine the drug specificity of the rosiglitazone-induced changes. In an animal study, insulin detemir was administered subcutaneously in two doses of 10 U/kg per day. Samples were collected from insulin detemir and vehicle-treated db/db mice at four time points (0, 7, 14, and 21 days). (Insulin detemir is a long-acting insulin marketed by Novo Nordisk under the trade name LEVEMIR.). […] The high mannose N-glycans that were decreased in the insulin-treated db/db mice were Man8GlcNAc2 (820000), Man7GlcNAc2 (720000), Man6GlcNAc2 (620000), and Man5GlcNAc2 (520000). The hybrid N-glycans that were decreased in the insulin-treated db/db mice were SiaGalGlcNAcMan3GlcNAc2 (430010), SiaGalGlcNAcMan4GlcNAc2 (530010), and SiaGalGlcNAcMan5GlcNAc2 (630010), wherein Sia is Neu5Ac or Neu5Gc.
The objective of this study was to evaluate the performance of candidate biomarkers discovered using rosiglitazone in mice treated with a diabetes drug with a different mechanism of action. The 16 candidate markers that were identified in Example 1 were evaluated in db/db mice treated with insulin detemir and vehicle.
In this Example, plasma samples were analyzed from ten db/db mice at baseline (0 days), and 20 db/db mice (ten vehicle and ten insulin detemir) at 7, 14, and 21 days. Sample preparation and analysis followed the protocol described in Example 1.
Data Analysis: For this study, the analysis was extended to evaluate changes in all detected N-glycans in order to reveal any novel N-glycan changes that might be specific to insulin detemir. The extended analysis was not performed in Study 2, which included only baseline and Day 7 time points since N-glycan changes at Day 7 could not be evaluated to determine if they are sustained over time. Drug-treated and vehicle-treated db/db mice were compared across each time point using the Student's t-test. To evaluate time-dependent changes, each time point within a treatment group was compared to its corresponding Day 0 group. N-glycans which yielded p-values <0.05 in this analysis were considered significant.
The concentrations of individual N-glycans in insulin detemir- and vehicle-treated db/db mice were compared at each time point using the Student's t-test. […] Time-dependence was also evaluated for each of the candidate markers by comparing each time point to baseline.

db/db mice [2] = assay: Study 1: plasma N-glycan profile (GLYCANMAP, MALDI-TOF MS) and HbA1c in rosiglitazone-treated db/db mice; type: in vivo; details: 10 mpk oral once daily, vs vehicle
Text: An initial study (Study 1) was an analysis of 160 plasma samples collected from rosiglitazone-treated mice following oral administration of 10 mpk once daily for up to 39 days. Rosigilitazone is an athiazolidinedione class of antidiabetic drug marketed by Glaxo under the trade name AVANDIA. […] These changes, on an individual N-glycan basis, reached high statistical significance (P<0.001) as early as seven days, a full two weeks prior to changes in HbA1c (day seven vs. day 21, respectively). […]
The objective of Study 1 was to evaluate N-linked glycosylation changes in plasma proteins that precede and predict the decrease in glycated hemoglobin (HbA1c) associated with successful resolution of diabetes. […] A baseline (Day 0) sample was not analyzed in the initial rosiglitazone study, but was included in the subsequent studies described in Examples 2 and 3.
GLYCANMAP Assay (a registered trademark of Ezose Sciences, Pine Brook, N.J.): A 10 μL aliquot of each plasma sample was spiked with internal standard (700 pmol) to aid in quantitation. The spiked aliquots were analyzed for N-linked glycans using GLYCANMAP methodology, which is based on the methods previously reported by Nishimura, Furukawa and Miura (Nishimura et al., Angew Chem. Int. Ed. Engl., 44: 91-96 (2004); Furukawa et al., Anal. Chem., 80: 1094-1101 (2008); Miura et al., Chem.-A Eur. J, 13: 4797-4804 (2007)). […]

[3] = serum samples, vs non-treated controls

For insulin detemir, the “Change in O-acetylated N-glycans” value (db/db mice [1]; [3]) was “No change”, the “Change in fucosylated N-glycans” value (db/db mice [1]; [3]) was “No change” and the “Change in tetraantennary N-glycans” value (db/db mice [1]; [3]) was “No change”. For the same compound, the “Direction of Change, High Mannose glycan 520000 (Man5GlcNAc2)” value (db/db mice [1]) was “decreased; also recorded: lower”, the “Direction of Change, High Mannose glycan 620000 (Man6GlcNAc2)” value (db/db mice [1]) was “decreased; also recorded: lower” and the “Direction of Change, High Mannose glycan 720000 (Man7GlcNAc2)” value (db/db mice [1]) was “decreased; also recorded: lower”. For the same compound, the “Direction of Change, High Mannose glycan 820000 (Man8GlcNAc2)” value (db/db mice [1]) was “decreased; also recorded: lower”, the “Direction of Change, Hybrid glycan 430010” value (db/db mice [1]) was “decreases; also recorded: lower” and the “Direction of Change, Hybrid glycan 530010” value (db/db mice [1]) was “decreases; also recorded: lower”. For the same compound, the “Direction of Change, Hybrid glycan 630010” value (db/db mice [1]) was “decreases; also recorded: lower”, the “Direction of Change, High Mannose glycan 520000 (Man5GlcNAc2)” value (db/db mice [1]; listed as Insulin Detemir) was “Decreased” and the “Direction of Change, High Mannose glycan 620000 (Man6GlcNAc2)” value (db/db mice [1]; listed as Insulin Detemir) was “Decreased”. For the same compound, the “Direction of Change, High Mannose glycan 720000 (Man7GlcNAc2)” value (db/db mice [1]; listed as Insulin Detemir) was “Decreased”, the “Direction of Change, High Mannose glycan 820000 (Man8GlcNAc2)” value (db/db mice [1]; listed as Insulin Detemir) was “Decreased” and the “Direction of Change, Hybrid glycan 430010” value (db/db mice [1]; listed as Insulin Detemir) was “Decreased”. The “Direction of Change, Hybrid glycan 530010” value (db/db mice [1]; listed as Insulin Detemir) was “Decreased” and the “Direction of Change, Hybrid glycan 630010” value (db/db mice [1]; listed as Insulin Detemir) was “Decreased”.

`CN(CCOc1ccc(CC2SC(=O)NC2=O)cc1)c1ccccn1` (stereo not drawn) [rosiglitazone] was tested, and the “Time at which highly significant (p<0.001) change in HbA1c was achieved” value (db/db mice [2]) was 21 days.
